Source: patent US20200247800A1, “SUBSTITUTED BICYCLIC HETEROCYCLIC COMPOUNDS AS NADPH OXIDASE INHIBITORS” (Glenmark Pharmaceuticals S.A., priority 2017, published 2020)
Counter-ions that a name gives are not always drawn.

Target: T1, human NOX4 (Homo sapiens, UniProt Q9NPH5)
T1 construct: expressed in transfected cells; membrane fraction used
T1 sequence (Q9NPH5 1-578): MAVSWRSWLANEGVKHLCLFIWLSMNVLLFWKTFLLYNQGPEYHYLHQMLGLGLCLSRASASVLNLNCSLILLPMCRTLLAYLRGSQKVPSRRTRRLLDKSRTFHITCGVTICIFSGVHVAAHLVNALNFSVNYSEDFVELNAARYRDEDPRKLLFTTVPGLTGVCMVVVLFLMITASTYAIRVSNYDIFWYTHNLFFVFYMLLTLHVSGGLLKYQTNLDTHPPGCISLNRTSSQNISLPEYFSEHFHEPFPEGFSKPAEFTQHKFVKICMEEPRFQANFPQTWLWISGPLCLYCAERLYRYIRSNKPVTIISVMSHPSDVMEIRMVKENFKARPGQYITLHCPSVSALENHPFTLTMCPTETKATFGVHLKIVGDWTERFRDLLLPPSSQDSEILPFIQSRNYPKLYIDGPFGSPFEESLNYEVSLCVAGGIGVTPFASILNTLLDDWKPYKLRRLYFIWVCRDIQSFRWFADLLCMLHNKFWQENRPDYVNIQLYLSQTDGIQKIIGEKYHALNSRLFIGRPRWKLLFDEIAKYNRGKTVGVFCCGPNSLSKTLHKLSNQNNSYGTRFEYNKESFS
T1 sequence (P13498 1-195 partner): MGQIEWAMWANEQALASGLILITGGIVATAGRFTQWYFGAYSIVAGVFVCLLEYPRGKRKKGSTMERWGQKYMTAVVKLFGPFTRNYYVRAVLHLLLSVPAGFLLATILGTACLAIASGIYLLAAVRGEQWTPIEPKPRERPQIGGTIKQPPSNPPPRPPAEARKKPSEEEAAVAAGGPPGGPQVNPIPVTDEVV
Test: Cell free membrane based in vitro NOX4 assay: H2O2 production by membranes expressing human NOX4, measured with Amplex Red
Type: biochemical
Settings: for inhibition at 1 µM: read-out: Percentage inhibition at 1.0 μM; for inhibition at 10 µM: read-out: Percentage inhibition at 10.0 μM; for IC50: class symbols
Outline: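 Membranes from HEK cells stably overexpressing human NOX4 were preincubated 20 min with inhibitor in pH 7.4 HEPES buffer containing HRP and Amplex Red, then NADPH was added. H2O2 was followed for 10 min by fluorescence (ex 544/em 590 nm). IC50 from nonlinear regression of % maximal uninhibited response.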

inhibition at 1 µM (1.0 μM compound)	inhibition at 10 µM (10.0 μM compound)	IC50	Percentage inhibition at 1.0 μM (1.0 μM compound, hydrochloride, 1 µM)	Percentage inhibition at 10.0 μM (10.0 μM compound, hydrochloride, 10 µM)	Structure (SMILES)
86.2%	92.7%	> 150 nM	–	–	CC(C)N1CCN(Cc2nn(C)c3[nH]c(-c4c(F)cccc4F)c(O)c(=O)c23)C[C@@H]1C [Example 222, (S)-6-(2,6-Difluorophenyl)-5-hydroxy-3-((4-isopropyl-3-methylpiperazin-1-yl)methyl)-1-methyl-1H-pyrazolo[3,4-b]pyridin-4(7H)-one]
87.5%	89.5%	< 50 nM	–	–	Cc1nn(C2CCCC2)c2[nH]c(-c3c(F)cccc3F)c(O)c(=O)c12 [Example 127, 1-Cyclopentyl-6-(2,6-difluorophenyl)-5-hydroxy-3-methyl-1,7-dihydro-4H-pyrazolo[3,4-b]pyridin-4-one]
75.5%	76.2%	> 150 nM	–	–	CCn1nc(C)c2c(=O)c(O)c(-c3c(F)cccc3Cl)[nH]c21 [Example 123, 6-(2-Chloro-6-fluorophenyl)-1-ethyl-5-hydroxy-3-methyl-1,7-dihydro-4H-pyrazolo[3,4-b]pyridin-4-one]
89.7%	64.5%	50 to 100 nM	–	–	CCn1nc(C)c2c(=O)c(O)c(-c3ccccc3Cl)[nH]c21 [Example 26, 6-(2-Chlorophenyl)-1-ethyl-5-hydroxy-3-methyl-1,7-dihydro-4H-pyrazolo[3,4-b]pyridin-4-one]
97.4%	100%	< 50 nM	–	–	CCc1nn(CCN2CCOCC2)c2[nH]c(-c3c(F)cccc3F)c(O)c(=O)c12 [Example 156, 6-(2,6-difluorophenyl)-3-ethyl-5-hydroxy-1-(2-morpholinoethyl)-1H-pyrazolo[3,4-b]pyridin-4(7H)-one]
74.8%	–	> 150 nM	–	–	CCc1nn(C)c2[nH]c(-c3cc(F)cc(F)c3)c(O)c(=O)c12 [Example 162, 6-(3,5-Difluorophenyl)-3-ethyl-5-hydroxy-1-methyl-1H-pyrazolo[3,4-b]pyridine-4(7H)-one]
85.6%	–	100 to 150 nM	–	–	CCc1nn(CCCN2CCOCC2)c2[nH]c(-c3cccc(C(F)(F)F)c3F)c(O)c(=O)c12 [Example 174, 3-Ethyl-6-(2-fluoro-3-(trifluoromethyl)phenyl)-5-hydroxy-1-(3-morpholinopropyl)-1H-pyrazolo[3,4-b]pyridin-4(7H)-one]
–	–	> 150 nM	80.17%	71.20%	CCc1nn(CCN2CCOCC2)c2[nH]c(-c3ccccc3Cl)c(O)c(=O)c12 [Example 238, 6-(2-Chlorophenyl)-3-ethyl-5-hydroxy-1-(2-morpholinoethyl)-1H-pyrazolo[3,4-b]pyridin-4(7H)-one hydrochloride]
44.1%	–	–	–	–	CCn1nc(C)c2c(=O)c(O)c(-c3ccc(F)cc3)[nH]c21 [Example 112, 1-Ethyl-6-(4-fluorophenyl)-5-hydroxy-3-methyl-1,7-dihydro-4H-pyrazolo[3,4-b]pyridin-4-one]
84.2%	98.3%	100 to 150 nM	–	–	COc1ccc(-c2[nH]c3c(c(C(F)(F)F)nn3C)c(=O)c2O)c(Cl)c1 [Example 48, 6-(2-Chloro-4-methoxyphenyl)-5-hydroxy-1-methyl-3-(trifluoromethyl)-1,7-dihydro-4H-pyrazolo[3,4-b]pyridin-4-one]
82.5%	71.6%	100 to 150 nM	–	–	CCc1nn(CC2CCOCC2)c2[nH]c(-c3ccccc3Cl)c(O)c(=O)c12 [Example 208, 6-(2-Chlorophenyl)-3-ethyl-5-hydroxy-1-((tetrahydro-2H-pyran-4-yl)methyl)-1H-pyrazolo[3,4-b]pyridin-4(7H)-one]
78.8%	81.6%	> 150 nM	–	–	CCc1nn(CCN2CCOC(C)(C)C2=O)c2[nH]c(-c3c(F)cccc3F)c(O)c(=O)c12 [Example 184, 4-(2-(6-(2,6-Difluorophenyl)-3-ethyl-5-hydroxy-4-oxo-4,7-dihydro-1H-pyrazolo[3,4-b]pyridin-1-yl)ethyl)-2,2-dimethylmorpholin-3-one]
95.3%	75.2%	50 to 100 nM	–	–	COc1ccc(-c2[nH]c3c(c(C)nn3C)c(=O)c2O)c(F)c1 [Example 19, 6-(2-Fluoro-4-methoxyphenyl)-5-hydroxy-1,3-dimethyl-1,7-dihydro-4H-pyrazolo[3,4-b]pyridin-4-one]
85.1%	84.8%	50 to 100 nM	–	–	Cc1nn(CCCO)c2[nH]c(-c3c(F)cccc3F)c(O)c(=O)c12 [Example 232, 6-(2,6-Difluorophenyl)-5-hydroxy-1-(3-hydroxypropyl)-3-methyl-1H-pyrazolo[3,4-b]pyridin-4(7H)-one]

More lines, now with the values behind:

Structure (SMILES)	inhibition at 1 µM (1.0 μM compound)	inhibition at 10 µM (10.0 μM compound)	IC50	Percentage inhibition at 1.0 μM (1.0 μM compound, hydrochloride, 1 µM)	Percentage inhibition at 10.0 μM (10.0 μM compound, hydrochloride, 10 µM)
Cn1ncc2c(=O)c(O)c(-c3ccc(Cl)cc3Cl)[nH]c21 [Example 5, 6-(2,4-Dichlorophenyl)-5-hydroxy-1-methyl-1,7-dihydro-4H-pyrazolo[3,4-b]pyridin-4-one]	74%	84.2%	> 150 nM	–	–
Cc1nn(C(C)C)c2[nH]c(-c3c(F)cccc3F)c(O)c(=O)c12 [Example 74, 6-(2,6-Difluorophenyl)-5-hydroxy-1-isopropyl-3-methyl-1H-pyrazolo[3,4-b]pyridin-4(7H)-one]	91.1%	90.3%	50 to 100 nM	–	–
Cc1nn(CCN2CCN(C)CC2)c2[nH]c(-c3ccccc3Cl)c(O)c(=O)c12 [Example 243, 6-(2-Chlorophenyl)-5-hydroxy-3-methyl-1-(2-(4-methylpiperazin-1-yl)ethyl)-1H-pyrazolo[3,4-b]pyridin-4(7H)-one fumarate]	–	–	> 150 nM	–	–
Cc1nn(CCN2CCCC2)c2[nH]c(-c3ccccc3Cl)c(O)c(=O)c12 [Example 151, 6-(2-Chlorophenyl)-5-hydroxy-3-methyl-1-(2-(pyrrolidin-1-yl)ethyl)-1H-pyrazolo[3,4-b]pyridin-4(7H)-one]	81.1%	76.2%	> 150 nM	–	–
Cc1nn(CCN2CCOCC2)c2[nH]c(-c3cccc(C(F)(F)F)c3F)c(O)c(=O)c12 [Example 153, 6-(2-fluoro-3-(trifluoromethyl)phenyl)-5-hydroxy-3-methyl-1-(2-morpholinoethyl)-1H-pyrazolo[3,4-b]pyridin-4(7H)-one]	100%	93%	> 150 nM	–	–
CCn1nc2c(=O)c(O)c(-c3ccccc3Cl)oc2c1C [Example 229, 5-(2-Chlorophenyl)-2-ethyl-6-hydroxy-3-methylpyrano[3,2-c]pyrazol-7(2H)-one]	4.45%	5.81%	–	–	–
CCn1nc(C)c2c(=O)c(O)c(-c3cccc(F)c3F)[nH]c21 [Example 95, 6-(2,3-Difluorophenyl)-1-ethyl-5-hydroxy-3-methyl-1H-pyrazolo[3,4-b]pyridin-4(7H)-one]	71.1%	62.6%	> 150 nM	–	–
CCn1nc(C)c2c(=O)c(O)c(-c3c(F)cc(OC)cc3F)[nH]c21 [Example 118, 6-(2,6-Difluoro-4-methoxyphenyl)-1-ethyl-5-hydroxy-3-methyl-1H-pyrazolo[3,4-b]pyridin-4(7H)-one]	78.8%	77.5%	50 to 100 nM	–	–
Cc1nn(C)c2[nH]c(-c3ccc(F)cc3F)c(O)c(=O)c12 [Example 14, 6-(2,4-Difluorophenyl)-5-hydroxy-1,3-dimethyl-1,7-dihydro-4H-pyrazolo[3,4-b]pyridin-4-one]	100%	82.5%	50 to 100 nM	–	–
CCc1nn(CCN2CCC(F)(F)CC2)c2[nH]c(-c3c(F)cccc3F)c(O)c(=O)c12 [Example 205, 6-(2,6-Difluorophenyl)-1-(2-(4,4-difluoropiperidin-1-yl)ethyl)-3-ethyl-5-hydroxy-1H-pyrazolo[3,4-b]pyridin-4(7H)-one]	95.9%	94.6%	50 to 100 nM	–	–
Cn1nc(C(F)(F)F)c2c(=O)c(O)c(-c3ccccc3Cl)[nH]c21 [Example 40, 6-(2-Chlorophenyl)-5-hydroxy-1-methyl-3-(trifluoromethyl)-1,7-dihydro-4H-pyrazolo[3,4-b]pyridin-4-one]	93.3%	100%	< 50 nM	–	–
Cc1nn(C(C)C)c2[nH]c(-c3ccccc3Cl)c(O)c(=O)c12 [Example 28, 6-(2-Chlorophenyl)-5-hydroxy-3-methyl-1-(propan-2-yl)-1,7-dihydro-4H-pyrazolo[3,4-b]pyridin-4-one]	82.1%	58.9%	100 to 150 nM	–	–
